System: Transport facilitation protein genes
Assay: DNA chip mRNA expression in yeast, transport facilitation protein genes (Table 5)
Assay type: cell-based, Saccharomyces cerevisiae S288C
In short: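 Measured as treated-to-untreated fluorescence ratio on a full-genome yeast DNA chip. Cells (S288C, YPD, 25° C.) were exposed in log phase for two hours to one chemical, dosed to curb growth without killing.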

**Q.** COc1cc(CNC(=O)CCCCC=CC(C)C)ccc1O [(12), 8-methyl-N-vanillyl-6-nonenamide] was tested. Which “The level of expressed mRNA in the presence of chemical substance/The level of expressed mRNA in the absence of chemical substance” value (yeast gene YBL030C) did it give?
**A.** Its value is 0.9.

**Q.** What about the “The level of expressed mRNA in the presence of chemical substance/The level of expressed mRNA in the absence of chemical substance” value (yeast gene YBL099W) of the same compound?
**A.** Its value is 1.0.

**Q.** And the “The level of expressed mRNA in the presence of chemical substance/The level of expressed mRNA in the absence of chemical substance” value (yeast gene YBR052C)?
**A.** The value was 1.3.

**Q.** What about the “The level of expressed mRNA in the presence of chemical substance/The level of expressed mRNA in the absence of chemical substance” value (yeast gene YBR068C) of the same compound?
**A.** Its value is 0.8.

**Q.** And the “The level of expressed mRNA in the presence of chemical substance/The level of expressed mRNA in the absence of chemical substance” value (yeast gene YBR127C)?
**A.** Its value is 0.9.

**Q.** What about the “The level of expressed mRNA in the presence of chemical substance/The level of expressed mRNA in the absence of chemical substance” value (yeast gene YBR132C) of the same compound?
**A.** Its value is 1.0.

**Q.** And the “The level of expressed mRNA in the presence of chemical substance/The level of expressed mRNA in the absence of chemical substance” value (yeast gene YBR207W)?
**A.** The value was 0.9.

**Q.** What about the “The level of expressed mRNA in the presence of chemical substance/The level of expressed mRNA in the absence of chemical substance” value (yeast gene YBR293W) of the same compound?
**A.** Its value is 1.0.

**Q.** What about the “The level of expressed mRNA in the presence of chemical substance/The level of expressed mRNA in the absence of chemical substance” value (yeast gene YBR294W) of the same compound?
**A.** Its value is 1.0.

**Q.** And the “The level of expressed mRNA in the presence of chemical substance/The level of expressed mRNA in the absence of chemical substance” value (yeast gene YBR295W)?
**A.** Its value is 0.9.

**Q.** And the “The level of expressed mRNA in the presence of chemical substance/The level of expressed mRNA in the absence of chemical substance” value (yeast gene YBR298C)?
**A.** Its value is 1.1.

**Q.** What about the “The level of expressed mRNA in the presence of chemical substance/The level of expressed mRNA in the absence of chemical substance” value (yeast gene YCL025C) of the same compound?
**A.** Its value is 1.1.

**Q.** What about the “The level of expressed mRNA in the presence of chemical substance/The level of expressed mRNA in the absence of chemical substance” value (yeast gene YCL038C) of the same compound?
**A.** Its value is 1.3.

**Q.** What about the “The level of expressed mRNA in the presence of chemical substance/The level of expressed mRNA in the absence of chemical substance” value (yeast gene YCR024C-A) of the same compound?
**A.** Its value is 1.0.

**Q.** What about the “The level of expressed mRNA in the presence of chemical substance/The level of expressed mRNA in the absence of chemical substance” value (yeast gene YCR037C) of the same compound?
**A.** Its value is 0.7.

**Q.** What about the “The level of expressed mRNA in the presence of chemical substance/The level of expressed mRNA in the absence of chemical substance” value (yeast gene YCR098C) of the same compound?
**A.** The value was 1.3.

**Q.** And the “The level of expressed mRNA in the presence of chemical substance/The level of expressed mRNA in the absence of chemical substance” value (yeast gene YDL128W)?
**A.** Its value is 0.9.

**Q.** And the “The level of expressed mRNA in the presence of chemical substance/The level of expressed mRNA in the absence of chemical substance” value (yeast gene YDL198C)?
**A.** The value was 1.2.

**Q.** What about the “The level of expressed mRNA in the presence of chemical substance/The level of expressed mRNA in the absence of chemical substance” value (yeast gene YDL210W) of the same compound?
**A.** The value was 0.8.

**Q.** What about the “The level of expressed mRNA in the presence of chemical substance/The level of expressed mRNA in the absence of chemical substance” value (yeast gene YDL245C) of the same compound?
**A.** The value was 1.0.

**Q.** What about the “The level of expressed mRNA in the presence of chemical substance/The level of expressed mRNA in the absence of chemical substance” value (yeast gene YDR038C) of the same compound?
**A.** Its value is 0.7.

**Q.** And the “The level of expressed mRNA in the presence of chemical substance/The level of expressed mRNA in the absence of chemical substance” value (yeast gene YDR039C)?
**A.** The value was 0.8.

**Q.** And the “The level of expressed mRNA in the presence of chemical substance/The level of expressed mRNA in the absence of chemical substance” value (yeast gene YDR086C)?
**A.** Its value is 0.7.

**Q.** What about the “The level of expressed mRNA in the presence of chemical substance/The level of expressed mRNA in the absence of chemical substance” value (yeast gene YDR270W) of the same compound?
**A.** The value was 1.0.

**Q.** What about the “The level of expressed mRNA in the presence of chemical substance/The level of expressed mRNA in the absence of chemical substance” value (yeast gene YDR298C) of the same compound?
**A.** The value was 1.1.

**Q.** And the “The level of expressed mRNA in the presence of chemical substance/The level of expressed mRNA in the absence of chemical substance” value (yeast gene YDR342C)?
**A.** Its value is 1.0.

**Q.** What about the “The level of expressed mRNA in the presence of chemical substance/The level of expressed mRNA in the absence of chemical substance” value (yeast gene YDR343C) of the same compound?
**A.** Its value is 1.0.

**Q.** What about the “The level of expressed mRNA in the presence of chemical substance/The level of expressed mRNA in the absence of chemical substance” value (yeast gene YDR345C) of the same compound?
**A.** The value was 1.4.

**Q.** What about the “The level of expressed mRNA in the presence of chemical substance/The level of expressed mRNA in the absence of chemical substance” value (yeast gene YDR387C) of the same compound?
**A.** The value was 0.9.

**Q.** And the “The level of expressed mRNA in the presence of chemical substance/The level of expressed mRNA in the absence of chemical substance” value (yeast gene YDR497C)?
**A.** The value was 0.9.

**Q.** And the “The level of expressed mRNA in the presence of chemical substance/The level of expressed mRNA in the absence of chemical substance” value (yeast gene YEL027W)?
**A.** The value was 0.9.

**Q.** What about the “The level of expressed mRNA in the presence of chemical substance/The level of expressed mRNA in the absence of chemical substance” value (yeast gene YEL063C) of the same compound?
**A.** Its value is 1.1.

**Q.** And the “The level of expressed mRNA in the presence of chemical substance/The level of expressed mRNA in the absence of chemical substance” value (yeast gene YEL065W)?
**A.** The value was 1.7.

**Q.** What about the “The level of expressed mRNA in the presence of chemical substance/The level of expressed mRNA in the absence of chemical substance” value (yeast gene YER053C) of the same compound?
**A.** The value was 1.7.

**Q.** And the “The level of expressed mRNA in the presence of chemical substance/The level of expressed mRNA in the absence of chemical substance” value (yeast gene YER119C)?
**A.** The value was 0.7.

**Q.** What about the “The level of expressed mRNA in the presence of chemical substance/The level of expressed mRNA in the absence of chemical substance” value (yeast gene YFL011W) of the same compound?
**A.** The value was 0.9.

**Q.** And the “The level of expressed mRNA in the presence of chemical substance/The level of expressed mRNA in the absence of chemical substance” value (yeast gene YFL041W)?
**A.** Its value is 1.1.

**Q.** What about the “The level of expressed mRNA in the presence of chemical substance/The level of expressed mRNA in the absence of chemical substance” value (yeast gene YFL050C) of the same compound?
**A.** Its value is 0.9.

**Q.** And the “The level of expressed mRNA in the presence of chemical substance/The level of expressed mRNA in the absence of chemical substance” value (yeast gene YFL054C)?
**A.** The value was 1.2.

**Q.** What about the “The level of expressed mRNA in the presence of chemical substance/The level of expressed mRNA in the absence of chemical substance” value (yeast gene YFL055W) of the same compound?
**A.** Its value is 0.9.

**Q.** And the “The level of expressed mRNA in the presence of chemical substance/The level of expressed mRNA in the absence of chemical substance” value (yeast gene YGL006W)?
**A.** Its value is 0.9.

**Q.** And the “The level of expressed mRNA in the presence of chemical substance/The level of expressed mRNA in the absence of chemical substance” value (yeast gene YGL008C)?
**A.** The value was 2.4.

**Q.** And the “The level of expressed mRNA in the presence of chemical substance/The level of expressed mRNA in the absence of chemical substance” value (yeast gene YGL104C)?
**A.** The value was 1.1.

**Q.** What about the “The level of expressed mRNA in the presence of chemical substance/The level of expressed mRNA in the absence of chemical substance” value (yeast gene YGL167C) of the same compound?
**A.** Its value is 1.1.

**Q.** And the “The level of expressed mRNA in the presence of chemical substance/The level of expressed mRNA in the absence of chemical substance” value (yeast gene YGL255W)?
**A.** The value was 0.7.

**Q.** What about the “The level of expressed mRNA in the presence of chemical substance/The level of expressed mRNA in the absence of chemical substance” value (yeast gene YGR055W) of the same compound?
**A.** Its value is 0.9.

**Q.** And the “The level of expressed mRNA in the presence of chemical substance/The level of expressed mRNA in the absence of chemical substance” value (yeast gene YGR065C)?
**A.** Its value is 0.5.

**Q.** What about the “The level of expressed mRNA in the presence of chemical substance/The level of expressed mRNA in the absence of chemical substance” value (yeast gene YGR082W) of the same compound?
**A.** Its value is 0.8.

**Q.** What about the “The level of expressed mRNA in the presence of chemical substance/The level of expressed mRNA in the absence of chemical substance” value (yeast gene YGR096W) of the same compound?
**A.** The value was 0.8.

**Q.** And the “The level of expressed mRNA in the presence of chemical substance/The level of expressed mRNA in the absence of chemical substance” value (yeast gene YGR138C)?
**A.** Its value is 0.6.

**Q.** And the “The level of expressed mRNA in the presence of chemical substance/The level of expressed mRNA in the absence of chemical substance” value (yeast gene YGR191W)?
**A.** Its value is 0.7.

**Q.** And the “The level of expressed mRNA in the presence of chemical substance/The level of expressed mRNA in the absence of chemical substance” value (yeast gene YGR197C)?
**A.** Its value is 1.2.

**Q.** What about the “The level of expressed mRNA in the presence of chemical substance/The level of expressed mRNA in the absence of chemical substance” value (yeast gene YGR224W) of the same compound?
**A.** Its value is 0.6.

**Q.** What about the “The level of expressed mRNA in the presence of chemical substance/The level of expressed mRNA in the absence of chemical substance” value (yeast gene YGR260W) of the same compound?
**A.** Its value is 0.6.

— US8192962B2, “Processes for detecting toxic substances” (Daikin Industries, Ltd., priority 2001, dated 2012)
